Laboratory results taken from patent US20260226084A1, “DUAL RAF AND TUBULIN INHIBITORS AND METHODS OF USE THEREOF” (Deciphera Pharmaceuticals, LLC, priority 2023, published 2026).
Like-named read-outs stand apart in the source and are kept apart here.

Tests used:
[1] = target: T1, B-Raf kinase (SEQ ID NO: 1) (Homo sapiens, UniProt P15056); experiment: Biochemical Assay for B-Raf (coupled pyruvate kinase/lactate dehydrogenase assay); conditions: 1 mM ATP; read-out: BRAF (inhibition of biochemical activity, IC50)
T1 construct: GST (N); purchased Sigma
T1 sequence (P15056 416-766): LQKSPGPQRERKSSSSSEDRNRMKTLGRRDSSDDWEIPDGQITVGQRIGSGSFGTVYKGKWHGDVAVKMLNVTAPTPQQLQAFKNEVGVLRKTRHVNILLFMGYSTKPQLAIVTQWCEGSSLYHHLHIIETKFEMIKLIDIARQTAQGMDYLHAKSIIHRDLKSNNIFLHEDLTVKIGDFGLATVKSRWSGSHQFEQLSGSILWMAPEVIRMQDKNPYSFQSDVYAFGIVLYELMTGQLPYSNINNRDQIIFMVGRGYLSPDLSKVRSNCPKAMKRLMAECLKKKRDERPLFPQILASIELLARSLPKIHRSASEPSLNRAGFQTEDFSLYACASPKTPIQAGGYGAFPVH

[2] = target: T2, C-Raf kinase (SEQ ID NO: 2) (Homo sapiens, UniProt P04049, Y340D/Y341D); experiment: Biochemical Assay for C-Raf (coupled pyruvate kinase/lactate dehydrogenase assay); conditions: 1 mM ATP; read-out: CRAF (inhibition of biochemical activity, IC50)
T2 construct: C-Raf residues 306-end; Y340D, Y341D with; GST (N); purchased Sigma
T2 sequence (P04049 307-648 Y340D/Y341D): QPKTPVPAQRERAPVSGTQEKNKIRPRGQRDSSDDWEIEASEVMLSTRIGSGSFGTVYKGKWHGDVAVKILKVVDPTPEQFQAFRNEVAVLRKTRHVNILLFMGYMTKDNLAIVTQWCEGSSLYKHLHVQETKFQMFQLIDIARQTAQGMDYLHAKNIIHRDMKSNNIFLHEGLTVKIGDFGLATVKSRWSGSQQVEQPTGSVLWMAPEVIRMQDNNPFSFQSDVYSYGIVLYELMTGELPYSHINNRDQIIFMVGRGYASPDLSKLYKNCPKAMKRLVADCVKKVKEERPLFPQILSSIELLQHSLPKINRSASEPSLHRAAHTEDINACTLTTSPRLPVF

MiaPaca-2 cells = experiment: MiaPaca-2 Cell Proliferation Assay; format: cell-based; conditions: Table 2, read-out: Inhibition of cell proliferation in MiaPaca-2 (IC50 class)
Procedure, shortened: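 Viability was read as resazurin fluorescence (540 nm excitation, 600 nm emission) after 5–6 h with dye. Compounds were tested as serial dilutions in triplicate, with IC50 derived from the dose–response.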

HCT-116 cells = experiment: HCT-116 Cell Proliferation Assay; format: cell-based; conditions: Table 2, read-out: Inhibition of cell proliferation in HCT-116 (IC50 class)
Procedure, shortened: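 HCT-116 cells, 375/well in McCoy's 5A with 10% FBS, exposed to serial compound dilutions in triplicate for 67 to 72 hours at 37 °C. Viability read by resazurin fluorescence (ex 540/em 600 nm) after a further 4 to 5 h; IC50 values calculated.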

HPAF-II cells = experiment: HPAF-II Cell Proliferation Assay; format: cell-based; conditions: HPAF-II cells, Table 2, read-out: Inhibition of cell proliferation in HPAF-II (IC50 class)
Procedure, shortened: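 HPAF-II cells (750/well) in complete MEM with 10% FBS were exposed to serially diluted compound in triplicate for 115–120 h at 37 °C, 5% CO2. Resazurin was then added for 18–24 h more; fluorescence (ex 540/em 600 nm) gave IC50.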

Pa16c cells = experiment: Pa16c Cell Proliferation Assay; format: cell-based; conditions: Table 2, read-out: Inhibition of cell proliferation in Pa16c (IC50 class)
Procedure, shortened: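 Mouse Pa16c cells, 750/well in DMEM with 10% FBS, exposed to serially diluted compound in triplicate for 67 to 72 h at 37° C. Viability read by resazurin reduction over a further 18 to 24 h (ex 540/em 600 nm). IC50 calculated from the dose-response.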

[3] = Homo sapiens, MIA PaCa-2, MiaPaca-2 cells
[4] = Homo sapiens, HCT-116, HCT-116 cells

Row | Structure (SMILES) | IC50 [1] | IC50 [2] | IC50 (MiaPaca-2 cells; [3]) | IC50 (HCT-116 cells; [4]) | IC50 (HPAF-II cells; Homo sapiens, HPAF-II) | IC50 (Pa16c cells) | IC50 (MiaPaca-2 cells; MiaPaca-2 cells) | IC50 (HCT-116 cells; HCT-116 cells) | IC50 (HPAF-II cells)
1 | Cc1ccc(NC(=O)c2cc(C(F)(F)F)cnn2)cc1-c1cc(N[C@H](C)CO)nc(-c2c(C)n[nH]c2C)c1 [Example 122] | 100 to 500 nM | < 100 nM | 100 to 500 nM | 100 to 500 nM | 500 to 1000 nM | 100 to 500 nM |  |  | 
2 | Cc1ccc(NC(=O)c2cc(C(F)(F)F)cnn2)cc1-c1cc(N[C@H](C)CO)cc(-c2cc(NC(=O)C3CC3)ncn2)c1 [Example 123] | < 100 nM | < 100 nM | 100 to 500 nM | 100 to 500 nM | 100 to 500 nM | < 100 nM |  |  | 
3 | Cc1cc(-c2cc(NC(=O)c3cncc(C(C)(F)F)c3)ccc2C)cc(-c2ccnc(NC(=O)C3CC3)c2)n1 [Example 16] | < 100 nM | < 100 nM | 500 to 1000 nM | 100 to 500 nM | 1000 to 10000 nM | 1000 to 10000 nM |  |  | 
4 | O=C(Nc1cc(-c2ccnc(-c3ccnc(NC(=O)C4CC4)c3)c2)c(F)cc1F)c1cc(C(F)(F)F)cnn1 [Example 46] | < 100 nM | < 100 nM | 1000 to 10000 nM | 1000 to 10000 nM | 1000 to 10000 nM | 1000 to 10000 nM |  |  | 
5 | Cc1ccc(NC(=O)c2cc(C(C)C)cnn2)cc1-c1cncc(-c2ccnc(NC(=O)C3CC3)c2)c1 [Example 55] | < 100 nM | < 100 nM | 500 to 1000 nM | < 100 nM | 100 to 500 nM | 1000 to 10000 nM |  |  | 
6 | Cc1ccc(NC(=O)c2cc(C(C)C)cnn2)cc1-c1cncc(-c2cc(NC(=O)C3CC3)ncn2)c1 [Example 64] | < 100 nM | < 100 nM | 500 to 1000 nM | 100 to 500 nM | 100 to 500 nM | 100 to 500 nM |  |  | 
7 | Cc1ccc(NC(=O)c2cncc(C(F)(F)F)c2)cc1-c1ccnc(-c2ccnc(NC(=O)C3CC3)c2)c1 [Example 78] | < 100 nM | < 100 nM | 500 to 1000 nM | 100 to 500 nM | 100 to 500 nM | 1000 to 10000 nM |  |  | 
8 | COc1cnnc(C(=O)Nc2ccc(C)c(-c3ccnc(-c4ccnc(NC(=O)C5CC5)c4)c3)c2)c1 [Example 49] | < 100 nM | < 100 nM | 500 to 1000 nM | 100 to 500 nM | 100 to 500 nM | 1000 to 10000 nM |  |  | 
9 | Cc1ccc(NC(=O)c2ccc(C(C)(F)F)nc2)cc1-c1ccnc(-c2ccnc(NC(=O)C3CC3)c2)c1 [Example 80] | < 100 nM | < 100 nM | 100 to 500 nM | 100 to 500 nM | 100 to 500 nM | 100 to 500 nM |  |  | 
10 | CC(=O)Nc1cc(-c2cc(-c3cc(NC(=O)c4ccc(C(F)(F)F)nc4)ccc3C)ccn2)ccn1 [Example 24] | < 100 nM | < 100 nM | < 100 nM | < 100 nM | < 100 nM | 100 to 500 nM |  |  | 
11 | Cc1ccc(NC(=N)c2cc(C(F)(F)F)cnn2)cc1-c1ccnc(-c2ccnc(NC(=O)C3CC3)c2)c1 [Example 86] | 100 to 500 nM | < 100 nM | 1000 to 10000 nM | 1000 to 10000 nM | 1000 to 10000 nM | 1000 to 10000 nM |  |  | 
12 | Cc1ccc(NC(=O)c2cc(C(C)(F)F)cnn2)cc1-c1cc(NCCO)nc(-c2ccnc(NC(=O)C3CC3)c2)c1 [Example 101] | < 100 nM | < 100 nM | 100 to 500 nM | < 100 nM | 100 to 500 nM | < 100 nM |  |  | 
13 | Cc1ccc(NC(=O)c2cc(C(F)(F)F)cnn2)cc1-c1ccnc(-c2ccoc2)c1 [Example 145] | 100 to 500 nM | 100 to 500 nM | 100 to 500 nM | 100 to 500 nM | 100 to 500 nM | 100 to 500 nM |  |  | 
14 | Cc1ccc(NC(=O)c2cc(C(F)(F)F)cnn2)cc1-c1cc(OCCO)nc(-c2cn[nH]c2)c1 [Example 116] | < 100 nM | < 100 nM | < 100 nM | < 100 nM | < 100 nM | < 100 nM |  |  | 
15 | Cc1ncc(NC(=O)c2cc(C(F)(F)F)cnn2)cc1-c1ccnc(-c2ccnc(NC(=O)C3CC3)c2)c1 [Example 34] | < 100 nM | < 100 nM | 1000 to 10000 nM | 1000 to 10000 nM | 1000 to 10000 nM | 1000 to 10000 nM |  |  | 
16 | Cc1ccc(NC(=O)c2cc(C(F)(F)F)cnn2)cc1-c1ccnc(-c2ccnc(NC(=O)C(F)(F)F)c2)c1 [Example 106] | 100 to 500 nM | < 100 nM | < 100 nM | < 100 nM | < 100 nM | < 100 nM |  |  | 
17 | Cc1ccc(NC(=O)c2cc(C(F)(F)F)cnn2)cc1-c1ccnc(-c2ccnc(NC=O)c2)c1 [Example 110] | < 100 nM | < 100 nM | < 100 nM | < 100 nM | < 100 nM | < 100 nM |  |  | 
18 | Cc1ccc(NC(=O)c2cc(C(C)(F)F)cnn2)cc1-c1ccnc(-c2ccsc2)c1 [Example 148] | 1000 to 10000 nM | 500 to 1000 nM | 100 to 500 nM | < 100 nM | 100 to 500 nM | 100 to 500 nM |  |  | 
19 | Cc1ccc(NC(=O)c2cc(C(C)C)cnn2)cc1-c1ccnc(-c2ccnc(NC(=O)C3CC3)c2)c1 [Example 38] | < 100 nM | < 100 nM | 100 to 500 nM | 100 to 500 nM | 100 to 500 nM | 500 to 1000 nM |  |  | 
20 | Cc1ccc(NC(=O)c2cc(C3CC3)cnn2)cc1-c1cc(OCCO)nc(-c2ccnc(NC(=O)C3CC3)c2)c1 [Example 104] | < 100 nM | < 100 nM | 500 to 1000 nM | 100 to 500 nM | 100 to 500 nM | 100 to 500 nM |  |  | 
21 | Cc1ccc(NC(=O)c2cc(C(F)(F)F)cnn2)cc1-c1ccnc(-c2ccnc(NC(=O)C3(C)CCC3)c2)c1 [Example 7] | 500 to 1000 nM | 100 to 500 nM | 100 to 500 nM | 100 to 500 nM | 100 to 500 nM | 100 to 500 nM |  |  | 
22 | CC(=O)Nc1cc(-c2cc(-c3cc(NC(=O)c4cc(C(F)(F)F)cnn4)ccc3C)ccn2)ccn1 [Example 93] | < 100 nM | < 100 nM |  |  |  | 1000 to 10000 nM | 100 to 500 nM | < 100 nM | < 100 nM
23 | CCn1cc(-c2cc(-c3cc(NC(=O)c4cc(C(F)(F)F)cnn4)ccc3C)ccn2)cn1 [Example 115] | 100 to 500 nM | 100 to 500 nM | 100 to 500 nM | 100 to 500 nM | 100 to 500 nM | 100 to 500 nM |  |  | 
24 | Cc1ccc(NC(=O)c2cc(C(F)(F)F)cnn2)cc1-c1ccnc(-c2ccnc(NCCO)c2)c1 [Example 129] | 100 to 500 nM | < 100 nM | < 100 nM | < 100 nM | < 100 nM | 100 to 500 nM |  |  | 
25 | Cc1ccc(NC(=O)c2cc(C(C)(F)F)cnn2)cc1-c1ccnc(-c2cncn2C)c1 [Example 138] | < 100 nM | < 100 nM | 100 to 500 nM | 100 to 500 nM | 100 to 500 nM | 100 to 500 nM |  |  | 
26 | Cc1cc(-c2cc(NC(=O)c3cncc(C(F)(F)F)c3)ccc2C)cc(-c2ccnc(NC(=O)C3CC3)c2)n1 [Example 81] | < 100 nM | < 100 nM |  |  |  | 1000 to 10000 nM | 1000 to 10000 nM | 100 to 500 nM | 1000 to 10000 nM
27 | Cc1ccc(NC(=O)c2ccc(C(F)(F)F)nn2)cc1-c1ccnc(-c2ccnc(NC(=O)C3CC3)c2)c1 [Example 19] | 100 to 500 nM | < 100 nM | 100 to 500 nM | 100 to 500 nM | 100 to 500 nM | < 100 nM |  |  | 
